Oligonucleotides are written 5' to 3', each unit as a sugar letter and its base; * is a phosphorothioate linkage, no mark a phosphodiester; rarer units and linkages stand in square brackets, end groups in braces. Plain capitals give the bases only. d = 2'-deoxy (DNA); m = 2'-O-methyl
Tests used:
XIAP mRNA [1] = experiment: XIAP mRNA knock-down in H460 cells (real-time RT-PCR / TaqMan); assay type: cell-based, human
Method: RNA was extracted from cells lysed in RLT buffer (QIAGEN, Valencia, Calif.), and purified using QIAGEN RNeasy columns/kits. Real-time quantitative PCR was performed on a Perkin-Elmer ABI 7700 Prism PCR machine. RNA was reverse transcribed and amplified according to the TaqMan Universal PCR Master Mix protocol of PE Biosystems, using primers and probes designed to specifically recognize XIAP, HIAP1, survivin, or GAPDH. For human survivin, the forward primer was 5′-[…]-3′ (SEQ ID NO: 263), the reverse primer was 5′-GAAAGGAAAGCGCAACCG-3′ (SEQ ID NO: 264), and the probe was 5′-(FAM)[…](TAMRA)-3′ (SEQ ID NO: 265). For human HIAP1, the forward primer was 5′-[…]-3′ (SEQ ID NO: 266), the reverse primer was 5′-[…]-3′ (SEQ ID NO: 267), and the probe was 5′-(FAM)[…](TAMRA)-3′ (SEQ ID NO: 268). For human XIAP, the forward primer was 5′-[…]-3′ (SEQ ID NO: 269), the reverse primer was 5′-[…]-3′ (SEQ ID NO: 270), and the probe was 5′-(FAM)[…](TAMRA)-3′ (SEQ ID NO: 271). For human GAPDH, the forward primer was 5′-GAAGGTGAAGGTCGGAGTC-3′ (SEQ ID NO: 272), the reverse primer was 5′-GAAGATGGTGATGGGATTC-3′ (SEQ ID NO: 273), and the probe was 5′-(JOE)[…](TAMRA)-3′ (SEQ ID NO: 274). FAM is 6-carboxyfluoroscein, JOE is 6-carboxy-4,5-dichloro-2,7-dimethoxyfluoroscein, and TAMRA is 6-carboxy-N,N,N′,N′-tetramethylrhodamine. FAM and JOE are 5′ reporter dyes, while TAMRA is a 3′ quencher dye.
Relative quantification of gene expression was performed as described in the PE Biosystems manual using GAPDH as an internal standard. The comparative Ct (cycle threshold) method was used for relative quantitation of IAP mRNA levels compared to GAPDH mRNA levels. Briefly, real-time fluorescence measurements were taken at each PCR cycle and the threshold cycle (Ct) value for each sample was calculated by determining the point at which fluorescence exceeded a threshold limit of 30 times the baseline standard deviation. The average baseline value and the baseline SD are calculated starting from the third cycle baseline value and stopping at the baseline value three cycles before the signal starts to exponentially rise. The PCR primers and/or probes for the specific IAPs were designed to span at least one exon-intron boundary separated by 1 kb or more of genomic DNA, to reduce the possibility of amplifying and detecting genomic DNA contamination. The specificity of the signal, and possible contamination from DNA, were verified by treating some RNA samples with either DNase or RNase, prior to performing the reverse transcription and PCR reaction steps.
A portion of the 96 nucleobase oligomers depicted in Table 2 were rescreened for their ability to knock-down XIAP mRNA in NCI-H460 cells at […] post-transfection.
One day prior to transfection, H460 cells were plated in 6- or 96-well tissue culture plates. Phosphorothioate antisense oligonucleotides were delivered into cells with Lipofectamine 2000 (Life Technologies) in the form of liposome-oligonucleotide complexes. Following a 4.5 or 6 h transfection, the transfection medium was replaced with RPMI medium containing 10% FBS, and the cells incubated for another 24 or 48 h.
Total RNA from H460 cells treated with liposome-oligonucleotide complexes for 6 hours was immediately isolated using RNeasy mini spin columns and DNase treatment (QIAGEN, Valencia, Calif.). Specific XIAP mRNA was measured using a real-time quantitative RT-PCR method. […]

XIAP mRNA [2] = experiment: as above; assay type: cell-based, human; conditions: 2 × 2 MBO; NCI-H460 cells, 9 hours post-transfection; relative level (mock control 1.01)

Sequence	XIAP down-regulation H460 RNA (XIAP mRNA [1]) [%]	XIAP RNA (XIAP mRNA [2])
CATCTTGGATACTGTCTTT (antisense; sugars from the 5' end m2 d15 m2, backbone, methylation of C and T or U not given here; further chemistry not fully specified) [Code D10]	55	0.54
CTAAATACTAGAGTTCGAC (antisense; sugars from the 5' end m2 d15 m2, backbone and T or U not given here; further chemistry not fully specified) [Code G2]	55	0.44
CTTGAAAGTAATGACTGTG (antisense; sugars from the 5' end m2 d15 m2, backbone, methylation of C and T or U not given here; further chemistry not fully specified) [Code C11]	52	0.44
CTTTGATCTGGCTCAGACT (antisense; sugars from the 5' end m2 d15 m2, backbone, methylation of C and T or U not given here; further chemistry not fully specified) [Code G12]	76	0.24
GAAACCACATTTAACAGTT (antisense; sugars from the 5' end m2 d15 m2, backbone, methylation of C and T or U not given here; further chemistry not fully specified) [Code H12]	52	0.48
GAGTAAAAAAAATGGATAA (mG*mAdGdTdAdAdAdAdAdAdAdAdTdGdGdAdTmA*mA; antisense) [Code G11]	33	0.67
GCAGAATAAAACTAATAAT (antisense; sugars from the 5' end m2 d15 m2, backbone and T or U not given here; further chemistry not fully specified) [Code D2]	39	0.66
GCGGCCCAAAACAAAGAAG (antisense CCGGCCCAAAACAAAGAAG; sugars from the 5' end m2 d15 m2, linkages s1 o16 s1 (s phosphorothioate, o phosphodiester), methylation of C not given here) [Code C7]	72	0.27
GGAAGATTTGTTGAATTTG (antisense; sugars from the 5' end m2 d15 m2, backbone and T or U not given here; further chemistry not fully specified) [Code F7]	69	0.3
GGCCAGTTCTGAAAGGACT (antisense; sugars from the 5' end m2 d15 m2, backbone and T or U not given here; further chemistry not fully specified) [Code D6]	60	0.39
GTCAAATCATTAATTAGGA (antisense; sugars from the 5' end m2 d15 m2, backbone and T or U not given here; further chemistry not fully specified) [Code B2]	55	0.45
GTGTCTGATATATCTACAA (antisense; sugars from the 5' end m2 d15 m2, backbone and T or U not given here; further chemistry not fully specified) [Code H5]	39	0.59
GTTAGTGATGGTGTTTTGT (antisense; sugars from the 5' end m2 d15 m2, backbone and T or U not given here; further chemistry not fully specified) [Code E9]	43	0.69

From patent publication US8012944B2, “Method for treating cancer using IAP antisense oligomer and chemotherapeutic agent” (Pharmascience Inc., priority 2003, dated 2011)
